Data on two substances can be found in patent US20130203097A1 (priority 2010, published 2013).

*: point of attachment. pNA = O=[N+]([O-])c1ccc(N*)cc1; MeOSuc = COC(=O)CCC(=O)*

As usually defined, the Km is the concentration of substrate that gives half-maximal velocity. Broadly, the kcat is the maximal rate divided by the concentration of active sites.

For one data set, the system named is Pseudomonas aeruginosa. The following applies: cited from earlier work.
Data set [1] concerns other species of Legionella. The following applies: cited from earlier work.
Data set [2] concerns strains of Legionella pneumophila. Particulars: out of 283 strains of Legionella pneumophila tested; cited from earlier work.
Data set [3] deals with CC(=O)N[C@@H](CO)C(=O)N[C@@H](CCCCN)C(=O)NCC(=O)N[C@@H](Cc1ccc2ccc3cccc4ccc1c2c34)C(=O)N[C@@H](Cc1ccc(O)c([N+](=O)[O-])c1)C(=O)NCC(=O)NCC(=O)N[C@@H](CCCCN)C(N)=O. Kind of data set: purified protein, by the assay type. Particulars: pH 7.0; 37.0 °C.

With “MeOSuc-Arg-Pro-Tyr-pNA [Compound S-2586]”, in the data set with Pseudomonas aeruginosa, the “Pseudomonas aeruginosa that responded positively” value is listed as 22. Moreover, the “species that responded positively” value in data set [1] is on record as 2. The “strains that degraded the substrate” value in data set [2] is on record as 282.
Turning to Msp (Legionella pneumophila), in data set [3], the Km was 6.8 ± 0.6 µM and the kcat came to 23.9 ± 0.7 s⁻¹.
